Structures are written as SMILES. Where two headings read alike, the source gives them in different places.

Data set [1] relates to bronchospasm induced by acetyl choline aerosol in guinea pig. Put plainly: inhibition of bronchospasm induced by acetyl choline aerosol in awake guinea pig. The data set is classed as in vivo. The note with it: for ED50, inhibition of bronchospasm induced by acetyl choline aerosol: i.v.; for ED50: Cavia porcellus, iv.
For data set [2], the system named is isolated trachea of guinea pig. Put plainly: relaxation of isolated trachea of guinea pig precontracted with methacoline. The note with it: Cavia porcellus, read-out: IC50, relaxing the contraction of the isolated trachea of guinea pig precontracted with methacoline. From the text:
The compounds of the invention have been pharmacologically studied by means of in vitro and in vivo tests, suitable to evidence the anti-bronchospastic properties of the compounds. […] To this action a remarkable anti-bronchospastic action in the tests in vivo corresponded after administration by i.v. and inhalatory route.

In data set [3] the test system is PAF-acether induced bronchospasm in guinea pig. Put plainly: inhibition of PAF-acether induced bronchospasm in anestetized guinea pig. The data set is classed as in vivo. The settings on record: for inhibition of PAF-acether induced bronchospasm (in words): anestetized guinea pig, up to 3 μmol/kg; for inhibition % of PAF-acether induced bronchospasm: guinea pig, i.v.

A short description of data set [4]: acute toxicity in the mouse. The settings on record: in vivo; for LD50: approximate value; for selectivity ratio: ratio os/i.p., read-out: LD50 os/i.p.
Data set [5] deals with platelet aggregation (rabbit prp) from PAF acether. Put plainly: platelet aggregation (rabbit prp) from PAF-acether. The settings on record: Oryctolagus cuniculus. The data set is classed as cell-based.
Data set [6] concerns platelet aggregation (rabbit prp) from arachidonic acid. Put plainly: platelet aggregation (rabbit prp) from arachidonic acid. The data set is classed as cell-based. The note with it: Oryctolagus cuniculus.
In data set [7] the test system is platelet aggregation (rabbit prp) from collagen. Put plainly: platelet aggregation (rabbit prp) from collagen. Format: cell-based. The settings on record: Oryctolagus cuniculus.
The mark [8] stands for this setting: ip, read-out: approximate value of LD50, i.p.
[9] abbreviates: po, os, read-out: approximate value of LD50, os.

Take `CC[N+]1(C(C)C)[C@@H]2CC[C@H]1C[C@@H](OC(=O)C1CCCC=C1c1ccccc1)C2` (stereo partly drawn) [1st formula, 1st R, 4th R']: in data set [1], the “ED50, inhibition of bronchospasm induced by acetyl choline aerosol” value (shortened to “ED50, inhibition of bronchospasm induced”) was ~ 5900 nmol kg^-1.

Take `CC[N+]1(CC(C)C)[C@@H]2CC[C@H]1C[C@@H](OC(=O)C1CCCC=C1c1ccccc1)C2` (stereo partly drawn) [1st formula, 1st R, 6th R']: the ED50 (usually the midpoint of the dose-response relation) in data set [1] was over 5.7 µmol/kg. The IC50 (usually the midpoint of a concentration-inhibition curve) in data set [2] worked out at 54 nM.

Turning to `CCCC[N+]1(CC)[C@@H]2CC[C@H]1C[C@@H](OC(=O)C1CCCC=C1c1ccccc1)C2` (stereo partly drawn) [1st formula, 1st R, 7th R'], the IC50 in data set [2] came to 69 nM.

The compound `CC(C)[N+]1(C(C)C)[C@@H]2CC[C@H]1C[C@@H](OC(=O)C1CCCC=C1c1ccccc1)C2` (stereo partly drawn) [1st formula, 2nd R, 4th R'] had an ED50 in data set [1] of 2.5 µmol/kg. Further, the half-inhibitory concentration (IC50) in data set [2] was determined as 46 nM.

Regarding `CC(C)C[N+]1(C(C)C)[C@@H]2CC[C@H]1C[C@@H](OC(=O)C1CCCC=C1c1ccccc1)C2` (stereo partly drawn) [1st formula, 2nd R, 6th R'], the 50% effect level in data set [1] (ED50) was put at a dose of 1.08 µmol/kg. For the same compound, in data set [2], the half-inhibitory concentration (IC50) is 80 nM.

In data set [1], `CCCC[N+]1(C(C)C)[C@@H]2CC[C@H]1C[C@@H](OC(=O)C1CCCC=C1c1ccccc1)C2` (stereo partly drawn) [1st formula, 2nd R, 7th R'] showed a 50% effective dose (ED50) of 0.99 µmol/kg. The IC50 in data set [2] came out at 45 nM.

Regarding `CCC[N+]1(C(C)C)[C@@H]2CC[C@H]1C[C@@H](OC(=O)C1CCCC=C1c1ccccc1)C2` (stereo partly drawn) [1st formula, 3rd R, 4th R'], in data set [1], the ED50 was over 5.7 µmol/kg.

On to `CCC[N+]1(CCC)[C@@H]2CC[C@H]1C[C@@H](OC(=O)C1CCCC=C1c1ccccc1)C2` (stereo partly drawn) [1st formula, 3rd R, 5th R'], for which the IC50 in data set [2] turned out to be 380 nM.

On to `CCC[N+]1(CC(C)C)[C@@H]2CC[C@H]1C[C@@H](OC(=O)C1CCCC=C1c1ccccc1)C2` (stereo partly drawn) [1st formula, 3rd R, 6th R'], for which the ED50 in data set [1] is over 5.6 µmol/kg. The concentration for half-maximal inhibition (IC50) in data set [2] came out at 1200 nM.

In the case of `CCCC[N+]1(CCC)[C@@H]2CC[C@H]1C[C@@H](OC(=O)C1CCCC=C1c1ccccc1)C2` (stereo partly drawn) [1st formula, 3rd R, 7th R'], the median effective dose (ED50) in data set [1] is over 5.6 µmol/kg. Besides, in data set [2], the half-maximal inhibitory concentration (IC50) is 190 nM.

In data set [1], `CC(C)[N+]1(C)[C@@H]2CC[C@H]1C[C@@H](OC(=O)CC1=C(c3ccccc3)CCCC1)C2` (stereo partly drawn) [2nd formula, 1st R, 4th R'] had an ED50 of over 0.6 µmol/kg.

`CCC[N+]1(C)[C@@H]2CC[C@H]1C[C@@H](OC(=O)CC1=C(c3ccccc3)CCCC1)C2` (stereo partly drawn) [2nd formula, 1st R, 5th R'] showed a 50% effective dose (ED50) in data set [1] of over 0.6 µmol/kg. In addition, the IC50 in data set [2] turned out to be 240 nM.

With `CC(C)[N+]1(C(C)C)[C@@H]2CC[C@H]1C[C@@H](OC(=O)CC1=C(c3ccccc3)CCCC1)C2` [2nd formula, 2nd R, 4th R'], the ED50 in data set [1] is over 5.6 µmol/kg. In data set [2], the IC50 turned out to be 67000 nM.

In data set [1], `CCC[N+]1(C(C)C)[C@@H]2CC[C@H]1C[C@@H](OC(=O)CC1=C(c3ccccc3)CCCC1)C2` (stereo partly drawn) [2nd formula, 2nd R, 5th R'] had an ED50 of over 5.6 µmol/kg. The IC50 in data set [2] amounted to 8500 nM.

For the compound `CN1[C@@H]2CC[C@H]1C[C@@H](OC(=O)C(CO)c1ccccc1)C2` (stereo partly drawn) [Atropine sulphate, atropine sulphate, reference compound], in data set [1], it took a dose of 0.068 µmol/kg to reach the 50% effect level (ED50) and the “ED50, inhibition of bronchospasm induced” value was 68 nmol/kg. In data set [3], the “inhibition of PAF-acether induced bronchospasm (in words)” value was “fully inactive”. The “inhibition % of PAF-acether induced bronchospasm” value (from here on “inhibition %”) in data set [3] (3 μmol kg^-1) is 0%. Further, the half-inhibitory concentration (IC50) in data set [2] is 6.9 nM.

Take `CC(C)N1[C@@H]2CC[C@H]1C[C@@H](OC(=O)C1CCCC=C1c1ccccc1)C2` (stereo partly drawn) [Example 1, Endo-3-(2-phenyl-2-cyclohexen-1-carbonyloxy)-8-sin-isopropyl-8-azabicyclo-[3.2.1]-octane]: the ED50 in data set [1] is about 1.5 µmol/kg. Further, in data set [2], the half-inhibitory concentration (IC50) is 350 nM.

As for `CCN1[C@@H]2CC[C@H]1C[C@@H](OC(=O)C1CCCC=C1c1ccccc1)C2` (stereo partly drawn) [Example 4, Endo-3-(2-phenyl-2-cyclohexen-1-carbonyloxy)-8-sin-ethyl-8-azabicyclo-[3.2.1.]-octane], the 50% effective dose (ED50) in data set [1] is 6.12 µmol/kg. For the same compound, in data set [2], the IC50 amounted to 280 nM.

In turn, `CCCN1[C@@H]2CC[C@H]1C[C@@H](OC(=O)C1CCCC=C1c1ccccc1)C2` (stereo partly drawn) [Example 5, Endo-3-(2-phenyl-2-cyclohexen-1-carbonyloxy)-8-sin-propyl-8-azabicyclo-[3.2.1.]-octane] came in with an ED50 in data set [1] of over 7.7 µmol/kg. The IC50 in data set [2] is 1700 nM.

Compound `CN1[C@@H]2CC[C@H]1C[C@@H](OC(=O)CC1=C(c3ccccc3)CCCC1)C2` [Example 6, Endo-3-(2-phenyl-1-cyclohexen-1-acetoxy)-8-sin-methyl-8-azabicyclo-[3.2.1.]-octane] showed an ED50 in data set [1] of about 15 µmol/kg. In data set [2], the IC50 was 4200 nM.

As for `CC(C)N1[C@@H]2CC[C@H]1C[C@@H](OC(=O)CC1=C(c3ccccc3)CCCC1)C2` [Example 7, Endo-3-(2-phenyl-1-cyclohexen-1-acetoxy)-8-sin-isoproyl-8-azabicyclo-[3.2.1.]-octane], in data set [1], the ED50 is over 7.4 µmol/kg. In data set [2], the IC50 is 30000 nM.

Take `C[N+]1(C)[C@@H]2CC[C@H]1C[C@@H](OC(=O)CC1=C(c3ccccc3)CCCC1)C2` [Example 8, Endo-3-(2-phenyl-1-cyclohexen-1-acetoxy)-8,8-dimethyl-8-azoniabicyclo-[3.2.1.]-octane iodide]: the 50% inhibitory concentration (IC50) in data set [2] came out at 1.1 nM. In addition, the values for the median lethal dose (LD50) in data set [4] (setting [8]) and in data set [4] (setting [9]) were 45 mg/kg and 800 mg/kg, respectively. Moreover, the selectivity ratio in data set [4] (ip) stood at 18.

As to `CC[N+]1(C)[C@@H]2CC[C@H]1C[C@@H](OC(=O)CC1=C(c3ccccc3)CCCC1)C2` (stereo partly drawn) [Example 9, Endo-3-(2-phenyl-1-cyclohexen-1-acetoxy)-8-sin-methyl-8-ethyl-8-azoniabicyclo-[3.2.1.]-octane iodide], the 50% effective dose (ED50) in data set [1] was about 0.4 µmol/kg. In addition, the IC50 in data set [2] came out at 32 nM.

Turning to `CC(C)[N+]1(C)[C@@H]2CC[C@H]1C[C@@H](OC(=O)C1CCCC=C1c1ccccc1)C2` (stereo partly drawn) [Example 13, Endo-3-(2-phenyl-2-cyclohexen-1-carbonyloxy)-8-sin-isopropyl-8-methyl-8-azoniabicyclo-[3.2.1.]-octane iodide], the results for the “inhibition %” value in data set [3] (0.3 μmol kg^-1) and in data set [3] (3 μmol kg^-1) were 0% and 28 ± 13%, respectively. The IC50 in data set [5] was 39100 nM; in data set [2], 0.67 nM; in data set [6] it was over 100000 nM; in data set [7], over 100000 nM. Moreover, the results for the median lethal dose (LD50) in data set [4] (setting [8]) and in data set [4] (setting [9]) were 123 mg/kg and 500 mg/kg, respectively. In addition, in data set [4] (ip), the selectivity ratio was found to be 4.1.

For `CC[N+]1(C)[C@@H]2CC[C@H]1C[C@@H](OC(=O)C1CCCC=C1c1ccccc1)C2` (stereo partly drawn) [Example 20, Endo-3-(2-phenyl-2-cyclohexen-1-carbonyloxy)-8-sin-ethyl-8-methyl-8-azoniabicyclo-[3.2.1.]-octane iodide], the “inhibition %” value in data set [3] (0.3 μmol kg^-1) is 3 ± 11%; in data set [3] (3 μmol kg^-1), 36 ± 17%. Further, the 50% inhibitory concentration (IC50) in data set [5] was 7700 nM; in data set [2], 0.95 nM; in data set [6] it was over 100000 nM; in data set [7], over 100000 nM. Also, the LD50 (commonly the dose at which mortality reaches 50%) in data set [4] (setting [8]) amounted to 126 mg/kg; in data set [4] (setting [9]), 350 mg/kg. Moreover, the selectivity ratio in data set [4] (ip) came out at 2.8.

Consider `CCC[N+]1(C)[C@@H]2CC[C@H]1C[C@@H](OC(=O)C1CCCC=C1c1ccccc1)C2` (stereo partly drawn) [Example 25, Endo-3-(2-phenyl-2-cyclohexen-1-carbonyloxy)-8-sin-propyl-8-methyl-8-azoniabicyclo-[3.2.1.]-octane iodide], for which the IC50 in data set [2] was 3.3 nM. The LD50 in data set [4] (setting [8]) was 124 mg/kg; in data set [4] (setting [9]), 600 mg/kg. In addition, in data set [4] (ip), the selectivity ratio turned out to be 4.8.

`CCC[N+]1(CC)[C@@H]2CC[C@H]1C[C@@H](OC(=O)C1CCCC=C1c1ccccc1)C2` (stereo partly drawn) [Example 26, Endo-3-(2-phenyl-2-cyclohexen-1-carbonyloxy)-8-sin-propyl-8-ethyl-8-azoniabicyclo-[3.2.1.]-octane iodide] registered a median effective dose (ED50) in data set [1] of 0.228 µmol/kg.

Consider `CC(C)[N+]1(C)[C@@H]2CC[C@H]1C[C@@H](OC(=O)CC1=C(c3ccccc3)CCCC1)C2` (stereo partly drawn) [Example 31, Endo-3-(2-phenyl-1-cyclohexen-1-acetoxy)-8-sin-isopropyl-8-methyl-8-azoniabicyclo-[3.2.1.]-octane iodide], for which the IC50 in data set [2] amounted to 27 nM.

Regarding `CC[N+]1(C(C)C)[C@@H]2CC[C@H]1C[C@@H](OC(=O)CC1=C(c3ccccc3)CCCC1)C2` (stereo partly drawn) [Example 32, Endo-3-(2-phenyl-1-cyclohexen-1-acetoxy)-8-sin-isopropyl-8-ethyl-8-azoniabicyclo-[3.2.1.]-octane iodide], in data set [1], the ED50 was over 5.7 µmol/kg. Moreover, the half-inhibitory concentration (IC50) in data set [2] is 9000 nM.

`CC(C)[N+]1(C)[C@@H]2CC[C@H]1C[C@@H](OC(=O)C(CO)c1ccccc1)C2` (stereo partly drawn) [ipratropium bromide, reference compound]: in data set [1], the ED50 was 0.012 µmol/kg and the “ED50, inhibition of bronchospasm induced” value is 12 nmol/kg. For the same compound, in data set [3], the “inhibition of PAF-acether induced bronchospasm (in words)” value was “fully inactive”. Besides, the “inhibition %” value in data set [3] (3 μmol kg^-1) is on record as 7 ± 10%. Further, in data set [2], the IC50 is 2 nM.

The record behind these values is patent publication US4780467A, “Esters of N-alkyl-nortropines and their quaternary derivatives having anti-bronchospastic activity, and pharmaceutical compositions containing them” (Laboratori Guidotti Spa, priority 1986, dated 1988).
